Source: patent publication US9206124B2, “Treatment of drug-resistant cancer with 2-aryl-2-(3-indolyl) acetohydroxamates” (New Mexico Technical Research Foundation, priority 2013, dated 2015)

Test system: MES-SA/Dx5 MDR uterine sarcoma cells
Assay: MTT antiproliferative assay, MDR MES-SA/Dx5
Type: cell-based, human
Conditions: Homo sapiens, MES-SA/Dx5; 48 h treatment, MTT, ± SD; MDR line; read-out: GI50 in vitro, MES-SA/Dx5
Protocol: Compared with the intrinsic drug resistance, as described above for such cancers as glioblastoma and melanoma, a large variety of tumors can also develop resistance to anticancer drugs resulting in MDR as explained previously. To assess whether the hydroxamates can overcome this resistance mechanism, selected hydroxamates were tested against MDR cells (Table 4). The MDR uterine sarcoma cell line MES-SA/Dx5 was utilized for this experiment. This cell line was established from the parent uterine sarcoma MES-SA, grown in the presence of increasing concentrations of doxorubicin and known to be resistant to a number of P-gp substrates.
Human cancer cell lines were obtained from the American Type Culture Collection (ATCC, Manassas, Va., USA), the European Collection of Cell Culture (ECACC, Salisbury, UK) and the Deutsche Sammlung von Mikroorganismen and Zellkulturen (DSMZ, Braunschweig, Germany). Human cervical adenocarcinoma HeLa cells were cultured in DMEM supplemented with 10% fetal bovine serum (FBS). Human mammary carcinoma MCF-7 cells were cultured in RPMI supplemented with 10% FBS. The U87 cells (ATCC HTB-14) were cultured in DMEM culture medium, while the A549 cells (DSMZ ACC107) were cultured in RPMI culture medium supplemented with 10% heat-inactivated FBS. The glioblastoma multiforme Hs683 (ATCC HTB-138) and the T98G (ATCC CRL-1690) cell lines were cultivated in DMEM supplemented with 10% FBS. The Human uterine sarcoma MES-SA and MES-SA/Dx5 cells were cultured in RPMI-1640 medium supplemented with 10% FBS with MES SA/Dx5 maintained in the presence of 500 nM Doxorubicin (Sigma). SKMEL-28 cells (ATCC HTB72) and U373 glioblastoma cells (ECACC 08061901) were cultured in RPMI culture medium supplemented with 10% heat-inactivated FBS. Cell culture media were supplemented with 4 mM glutamine (Lonza code BE17-605E), 100 μg/mL gentamicin (Lonza code 17-5182), and penicillin-streptomycin (200 units/ml and 200 μg/ml) (Lonza code 17-602E). Neurosphere culture GBM 031810 was established using known methods and maintained in Neurobasal medium (Invitrogen Carlsbad, Calif.) with B27 supplement (20 ul/ml; Invitrogen), Glutamax (10 ul/ml; Invitrogen), fibroblast growth factor-2 (20 ng/ml; Peprotech, Rocky Hill, N.J., USA), epidermal growth factor (20 ng/ml; Peprotech), heparin (32 IE/ml; Sigma Aldrich, St. Louis, Mo.), and penicillin-streptomycin (1×, Invitrogen). Growth factors and heparin were renewed twice weekly. All cell lines were cultured in T25 flasks, maintained and grown at 37° C., 95% humidity, 5% CO2.
Antiproliferative properties of the synthesized compounds were evaluated by the MTT assay. All compounds were dissolved in DMSO at a concentration of either 100 mM or 50 mM prior to cell treatment. The cells were trypsinized and seeded at 4×10^3 cells per well into 96-well plates. The cells were grown for 24 h, treated with compounds at concentrations ranging from 0.001 to 100 μM and incubated for 48 h in 200 μL media. 20 μL of MTT reagent in serum free medium (5 mg/mL) was added to each well and incubated further for 2 h. Media was removed and the resulting formazan crystals were re-solubilized in 200 μL of DMSO. A490 was measured using a Molecular Devices Thermomax plate reader. The experiments were performed in quadruplicate and repeated at least twice for each compound per cell line. Cells treated with 0.1% DMSO were used as a negative control; 1 μM phenyl arsine oxide (PAO) was used as a positive control.
Selection of the MES-SA/Dx5 cell line was done according to W. G. Harker and B. I. Sikic, Cancer Res. 1985, p. 45, 4091. The cells were split and allowed to adhere overnight. […] The cells were maintained at this DOX concentration until their growth rate reached that of the untreated cells.

GI50: 4 ± 1.1 µM
SMILES: O=C(NO)C(c1ccccc1)c1c(-c2ccc3ccccc3c2)[nH]c2ccccc12 (stereo not shown) [Compound 3aafa]
